The text below walks through data of US11312727B1, “Macrocyclic flu endonuclease inhibitors” (Janssen BioPharma, Inc., priority 2018, dated 2022).

Each structure is given as a SMILES string.

Data set [1] deals with Influenza strain A549 A/WSN/33 (H1N1). Put plainly: microbe, parasite or virus in culture. The class given is cell-based. Conditions: Influenza A virus, A549, 20 h, A549 cells, influenza A/WSN/33 (H1N1), 20 hours incubation; read-out: A549_A(H1N1) EC50.
The next data set in a line: in vitro. Conditions: human, CC50, uninfected A549 cells, CellTiter-Glo. For orientation: ATP-based viability assays read luminescence as a measure of living cells.

Usually EC50 stands for the concentration that produces a half-maximal response. What is called CC50 is the concentration giving 50% cytotoxicity. High values mean lower toxicity to the cells, low ones greater toxicity to the cells. As to `O=C1c2c(O)c(=O)ccn2N2CN1C/C=C\COc1ccc(Cl)cc1[C@H]2c1ccccc1` (single isomer, unassigned) [Compound 51A], the EC50 in data set [1] was greater than 1 µM. This compound returned a cytotoxic concentration (CC50) in the data set “in vitro” greater than 2 µM.
Turning to `O=C1c2c(O)c(=O)ccn2N2CN1C/C=C\COc1ccc(Cl)cc1[C@@H]2c1ccccc1` (single isomer, unassigned) [Compound 51B], in data set [1], the EC50 worked out at 0.01 µM. In the data set “in vitro”, this compound showed a CC50 greater than 2 µM.
The matching figures for `O=C1c2c(O)c(=O)ccn2N2CN1C/C=C\COc1cccc3c1[C@H]2c1ccccc1OC3` (single isomer, unassigned) [Compound 53A, (21a*R,Z)-16-hydroxy-6,10,13,21a-tetrahydro-7,8-(epiprop[1]en[1]yl[3]ylidene)-14,21-methanobenzo[6,7]oxepino[4,5-c]pyrido[1,2-f][1]oxa[5,6,9]triazacyclotridecine-15,17-dione]: 0.034 µM and greater than 2 µM.
As for `O=C1c2c(O)c(=O)ccn2N2CN1C/C=C\COc1cccc3c1[C@@H]2c1ccccc1OC3` (single isomer, unassigned) [Compound 53B, (21a*S,Z)-16-hydroxy-6,10,13,21a-tetrahydro-7,8-(epiprop[1]en[1]yl[3]ylidene)-14,21-methanobenzo[6,7]oxepino[4,5-c]pyrido[1,2-f][1]oxa[5,6,9]triazacyclotridecine-15,17-dione], in data set [1], the EC50 was greater than 1 µM. Further, the CC50 in the data set “in vitro” is greater than 2 µM.
The matching figures for `O=C1c2c(O)c(=O)ccn2N2CN1CCC/C=C\c1ccccc1[C@H]2c1ccccc1` (single isomer, unassigned) [Compound 54A, (16*R,*Z)-4-hydroxy-16-phenyl-7,8,9,16-tetrahydro-6,17-methanobenzo[k]pyrido[1,2-b][1,2,5]triazacyclotridecine-3,5-dione]: greater than 1 µM and greater than 2 µM.
The matching figures for `O=C1c2c(O)c(=O)ccn2N2CN1CCC/C=C\c1ccccc1[C@@H]2c1ccccc1` (single isomer, unassigned) [Compound 54B, (16*S,*Z)-4-hydroxy-16-phenyl-7,8,9,16-tetrahydro-6,17-methanobenzo[k]pyrido[1,2-b][1,2,5]triazacyclotridecine-3,5-dione]: 0.033 µM and greater than 2 µM.
Consider `O=C1c2c(O)c(=O)ccn2N2CN1C/C=C\CCc1cnccc1[C@H]2c1ccccc1` (single isomer, unassigned) [Compound 56A, (18*R,*Z)-12-hydroxy-18-phenyl-5,6,9,18-tetrahydro-10,17-methanodipyrido[1,2-b:3′,4′-k][1,2,5]triazacyclotridecine-11,13-dione], for which the half-maximal effective concentration (EC50) in data set [1] is greater than 1 µM. The CC50 in “in vitro” is greater than 2 µM.
Turning to `O=C1c2c(O)c(=O)ccn2N2CN1C/C=C\CCc1cnccc1[C@@H]2c1ccccc1` (single isomer, unassigned) [Compound 56B, (18*S,*Z)-12-hydroxy-18-phenyl-5,6,9,18-tetrahydro-10,17-methanodipyrido[1,2-b:3′,4′-k][1,2,5]triazacyclotridecine-11,13-dione], the EC50 in data set [1] was 0.161 µM. In the data set “in vitro”, this compound came in with a half-maximal cytotoxic concentration (CC50) greater than 2 µM.
The matching figures for `O=C1c2c(O)c(=O)ccn2N2CN1C/C=C/CCc1cc(F)ccc1[C@@H]2c1ccccn1` (single isomer, unassigned) [Compound 57A, (16*R,E)-13-fluoro-4-hydroxy-16-(pyridin-2-yl)-7,10,11,16-tetrahydro-6,17-methanobenzo[k]pyrido[1,2-b][1,2,5]triazacyclotridecine-3,5-dione]: 0.032 µM and greater than 2 µM.
For `O=C1c2c(O)c(=O)ccn2N2CN1C/C=C/CCc1cc(F)ccc1[C@H]2c1ccccn1` (single isomer, unassigned) [Compound 57B, (16*S,E)-13-fluoro-4-hydroxy-16-(pyridin-2-yl)-7,10,11,16-tetrahydro-6,17-methanobenzo[k]pyrido[1,2-b][1,2,5]triazacyclotridecine-3,5-dione] the same measures were greater than 1 µM and greater than 2 µM.
